8 molecules from patent US9102675B2, “3-Cyanoaryl-1H-pyrrolo[2,3-B] pyridine derivatives” (MERCK PATENT GMBH, priority 2011, dated 2015) can be followed below.

Each structure is given as a SMILES string. Bounds are passed on as bounds.

Assay [1] concerns the target T1, TANK binding kinase (TBK1) (Homo sapiens, UniProt Q9UHD2).
T1 sequence (Q9UHD2 1-729): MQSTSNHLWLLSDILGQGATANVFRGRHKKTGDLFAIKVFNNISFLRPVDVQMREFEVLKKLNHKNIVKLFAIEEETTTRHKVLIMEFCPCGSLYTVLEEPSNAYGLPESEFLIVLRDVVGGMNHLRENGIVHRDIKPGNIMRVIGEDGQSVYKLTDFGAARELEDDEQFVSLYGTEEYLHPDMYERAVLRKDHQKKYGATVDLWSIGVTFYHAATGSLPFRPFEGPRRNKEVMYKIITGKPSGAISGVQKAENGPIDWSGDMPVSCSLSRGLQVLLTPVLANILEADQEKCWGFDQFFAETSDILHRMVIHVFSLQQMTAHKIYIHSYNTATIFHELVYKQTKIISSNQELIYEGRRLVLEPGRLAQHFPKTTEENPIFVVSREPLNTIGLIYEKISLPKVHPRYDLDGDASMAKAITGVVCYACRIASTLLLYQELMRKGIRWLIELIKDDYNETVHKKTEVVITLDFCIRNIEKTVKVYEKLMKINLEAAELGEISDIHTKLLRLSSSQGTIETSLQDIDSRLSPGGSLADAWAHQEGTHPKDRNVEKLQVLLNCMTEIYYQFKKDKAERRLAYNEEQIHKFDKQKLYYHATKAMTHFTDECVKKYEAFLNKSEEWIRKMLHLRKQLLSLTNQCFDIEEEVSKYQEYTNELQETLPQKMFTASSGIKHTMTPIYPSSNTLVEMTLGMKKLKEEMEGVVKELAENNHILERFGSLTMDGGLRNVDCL
As to the kind of experiment: TBK1 enzyme assay (384-well flashplate kinase assay). It counts as biochemical. Particulars: 10 μM ATP, 0.6 nM TBK1. The method, then: Test for the Inhibition of TBK1
(§1) The kinase assay is performed as 384-well flashplate assay (for example for Topcount measurement).
0.6 nM TANK binding kinase (TBK1), 800 nM biotinylated MELK-derived peptide (biotin-Ah-Ah-[…]) and 10 μM ATP (spiked with 0.25 μCi of ^33P-ATP/well) are incubated at 30° C. for 120 min in a total volume of 50 μl (10 mM MOPS, 10 mM Mg acetate, 0.1 mM EGTA, 1 mM DTT, 0.02% of Brij35, 0.1% of BSA, pH 7.5) with or without test compound. The reaction is stopped with 25 μl of 200 mM EDTA. After 30 min at room temperature, the liquid is removed, and each well is washed three times with 100 μl of 0.9% sodium chloride solution. Non-specific reaction is measured in the presence of 100 nM staurosporine. The radioactivity is measured in a Topcount (PerkinElmer). The results (for example IC50 values) are calculated using program tools provided by the IT Department (for example Assay-Explorer, Symyx). Cell Test

The target of a further assay is T2, IKKε (Homo sapiens, UniProt Q14164).
T2 sequence (Q14164 1-716): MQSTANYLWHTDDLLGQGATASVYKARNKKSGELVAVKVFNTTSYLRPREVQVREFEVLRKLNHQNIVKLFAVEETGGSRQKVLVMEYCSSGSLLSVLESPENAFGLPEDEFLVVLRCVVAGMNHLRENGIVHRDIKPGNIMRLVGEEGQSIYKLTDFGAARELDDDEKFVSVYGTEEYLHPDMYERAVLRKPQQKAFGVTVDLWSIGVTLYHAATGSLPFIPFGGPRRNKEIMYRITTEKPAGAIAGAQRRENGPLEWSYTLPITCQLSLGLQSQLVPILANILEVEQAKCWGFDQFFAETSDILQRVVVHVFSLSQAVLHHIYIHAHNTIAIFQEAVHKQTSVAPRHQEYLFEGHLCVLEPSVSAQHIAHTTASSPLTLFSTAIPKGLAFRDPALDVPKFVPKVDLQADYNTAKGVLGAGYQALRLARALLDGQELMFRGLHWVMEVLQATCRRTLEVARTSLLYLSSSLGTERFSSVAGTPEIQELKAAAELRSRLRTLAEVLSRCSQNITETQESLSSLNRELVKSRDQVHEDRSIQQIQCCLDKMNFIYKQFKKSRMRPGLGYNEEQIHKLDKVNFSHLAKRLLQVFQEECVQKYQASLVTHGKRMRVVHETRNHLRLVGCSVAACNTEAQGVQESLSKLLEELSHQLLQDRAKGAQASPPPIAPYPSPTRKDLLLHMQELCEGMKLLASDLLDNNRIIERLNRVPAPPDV
The experiment in a line: IKKε kinase assay (384-well flashplate assay). It counts as biochemical. Particulars: 10 μM ATP, 1 nM IKKε; read-out: IKKε enzyme assay IC50. The method, then:
Test for the Inhibition of IKKε
IKKε—Kinase Assay (IKKepsilon)
as §1
1 nM IKKε, 800 nM biotinylated IκKα(19-42) peptide (Biotin-C6-C6-[…]) and 10 μM ATP (spiked with 0.3 μCi of ^33P-ATP/well) are incubated at 30° C. for 2 hours in a total volume of 50 μl (10 mM MOPS, 10 mM Mg acetate, 0.1 mM EGTA, 1 mM dithiothreitol, 0.02% of Brij35, 0.1% of BSA, 0.1% of BioStab, pH 7.5) with or without test compound. The reaction is stopped using 25 μl of 200 mM EDTA. After 30 min at room temperature, the liquid is removed, and each well is washed three times with 100 μl of 0.9% sodium chloride solution. Non-specific reaction is determined in the presence of 3 μM MSC2119074 (BX-795). The radioactivity is measured using a Topcount (Perkin Elmer). The results (for example IC50 values) are calculated using program tools provided by the IT Department (for example AssayExplorer, Symyx).

In another assay the test system is TBK1 + IKKε. As to the kind of experiment: TBK1 + IKKε cell assay: dose response inhibition of phospho-IRF3 @ Ser 386 in MDA-MB-468 cells after poly(I:C) stimulation. As to conditions: Homo sapiens, MDA-MB-468, MDA-MB-468 cells, reference inhibitor, read-out: IC50 of reference inhibitor in phospho-IRF3 cell assay. Type of assay: cell-based. The text has this:
Dose response inhibition of phospho-IRF3 @ Ser 386 cell/MDAMB468/INH/PHOS/IMAG/pIRF3
Although TBK1 and IKKε are mainly known as key substances in the innate immune response, recent findings have indicated a role for TBK1 and IKKε in Ras-induced oncogenic transformation. TBK1 was identified as RaIB effector in the Ras-like (RaI)-guanine nucleotide exchange factor (GEF) pathway that is required for Ras-induced transformation. TBK1 directly activates IRF3 which, on phosphorylation, homodimerises and translocates to the nucleus, where it activates processes associated with inflammation, immune regulation, cell survival and proliferation.
This assay has been developed in order to assess the efficacy/potency of TBK1/IKKε inhibitor compounds based on the immunocytochemical detection of nucleus-localised phospho-IRF3, a target directly downstream of TBK1. Treatment with polyinosine-polycytidylic acid (poly(I:C), a synthetic analogue of double-stranded RNA (dsRNA), a molecular pattern associated with viral infection and recognised by Toll-like receptor 3 (TLR3) is used to induce TBK1/IKKε activity and IRF3 phosphorylation at Ser386.
Day 1: MDA-MB-468 cells are detached using HyQ-Tase, counted and sown into a 384-well plate with TC surface and clear bottom in a density of 10,000 cells per well in a total volume of 35 μl of complete medium. Alternatively, the cells are sown directly from frozen glass vials.
Day 2: The cells are pre-treated with inhibitor compounds for 1 h prior to poly(I:C) stimulation. After incubation for 2 h with poly(I:C), the cells are fixed in (para)formaldehyde (PFA) and permeabilised using methanol (MeOH). The cells are then blocked and incubated with an anti-pIRF3 antibody at 4° C. overnight.
Day 3: The primary antibody is washed off, an AlexaFluor488-conjugated secondary antibody is added, the cells are contrast-stained with propidium iodide, followed by image acquisition on an IMX ultra-high content reader.
Plating medium=culture medium: • RPMI 1640, Invitrogen #31870 • 10% of FCS, Invitrogen #10270-106 • 2 mM Glutamax, Invitrogen #35050-038 • 1 mM sodium pyruvate, Invitrogen #11360 • 1% of Pen/Strep • 37° C., 5% of CO2
Plates: 384-well bottom cell culture plates with black/clear bottom, Falcon #35 3962 or Greiner #781090
Subcultivation: HyQ-Tase, Thermo Scientific (HyClone) # SV30030.01
Poly(I:C) (LMW), Invitrogen # tlrl-picw (prepare 20 mg/ml stock solution in sterile PBS, denature 30 min 55° C. in a water bath, slowly cool to RT, store at −20° C. in aliquots)
a 10-point dose-response curve with MSC2119074A-4=BX-795 is included in each experiment
Formaldehyde (methanol-free, 16%, ultrapure EM grade), Polysciences #18814 (storage RT), final conc.: 4%
Goat serum, PAA # B15-035 (storage 4° C., long term −20° C.), final conc.: 10%
BSA (IgG- and protease-free, 30%), US-Biological # A1317 (storage 4° C., long term −20° C.), final conc.: 2%
Tween 20 detergent, Calbiochem #655204 (storage RT), (prepare 10% stock solution in water; final conc.: 0.1%)
Anti-pIRF-3 rabbit mAb, Epitomics #2526-B (storage −20° C.), final conc.: 1:2000 in PBS/2% of BSA
Alexa Fluor goat-anti-rabbit-488, Invitrogen # A11034 or # A11008 (storage 4° C., dark), final conc.: 1:2000 in PBS/2% of BSA/0.1% of Tween
Propidium iodide (PI), Fluka #81845, 1 mg/ml in H2O (storage 4° C., dark), final conc.: 0.2 μg/ml
(1) Sow 10,000 cells/well/35μof complete RPMI +10% FCS into 384-well bottom cell culture plates with black / clear bottom,
(2) Incubate for 2 h at room temperature on the bench, followed by further incubation for 22 h at 37° C., 5% of CO2 and 90% RH. […]

By IC50 is commonly meant the point on the concentration scale where inhibition reaches its midpoint. On to `N#Cc1cc(-c2c[nH]c3ncc(-c4cnn(C5CCN(S(=O)(=O)c6ccccc6)CC5)c4)cc23)cnc1OC1CCOCC1` [Compound A19, 5-[5-[1-[1-(benzenesulfonyl)-4-piperidyl]pyrazol-4-yl]-1H-pyrrolo[2,3-b]pyridin-3-yl]-2-tetrahydropyran-4-yloxypyridine-3-carbonitrile], for which the IC50 (in assay [1]; on IKKε) was 0.3 to 3 µM each time.

For the molecule `N#Cc1cc(-c2c[nH]c3ncc(Br)cc23)ccc1OC1CCOCC1` [Compound A5, 5-(5-bromo-1H-pyrrolo[2,3-b]pyridin-3-yl)-2-tetrahydropyran-4-yl-oxy-benzonitrile], the IC50 (in assay [1]; on IKKε) was 3 to 50 µM throughout.

On to `Cc1[nH]c2ncc(-c3cnn(C)c3)cc2c1-c1ccc(OC2CCOCC2)c(C#N)c1` [Compound A11, 5-[2-methyl-5-(1-methylpyrazol-4-yl)-1H-pyrrolo[2,3-b]pyridin-3-yl]-2-tetrahydropyran-4-yloxybenzonitrile], for which the values for the IC50 (in assay [1]; at IKKε) were below 0.3 µM and 0.3 to 3 µM, respectively. For `COc1ccnc2[nH]cc(-c3ccc(OC4CCOCC4)c(C#N)c3)c12` [Compound A2, 5-(4-methoxy-1H-pyrrolo[2,3-b]pyridin-3-yl)-2-tetrahydropyran-4-yloxybenzonitrile] the same measures were 0.3 to 3 µM and 0.3 to 3 µM. Take `N#Cc1cc(-c2c[nH]c3ncc(Br)cc23)ccc1OCC1CC1` [Compound A14, 5-(5-bromo-1H-pyrrolo[2,3-b]pyridin-3-yl)-2-(cyclopropylmethoxy)benzonitrile]: the IC50 (in assay [1]; at IKKε) was 3 to 50 µM in each case. Regarding `COc1ccc2c(-c3ccc(OC4CCOCC4)c(C#N)c3)c[nH]c2n1` [Compound A3, 5-(6-methoxy-1H-pyrrolo[2,3-b]pyridin-3-yl)-2-tetrahydropyran-4-yloxybenzonitrile], the IC50 (in assay [1]; on IKKε) was 3 to 50 µM in each case. For `N#Cc1ccc(-c2cnc3[nH]cc(-c4ccc(OC5CCOCC5)c(C#N)c4)c3c2)cc1` [Compound A6, 5-[5-(4-cyanophenyl)-1H-pyrrolo[2,3-b]pyridin-3-yl]-2-tetrahydropyran-4-yloxybenzonitrile], the figures for the IC50 (in assay [1]; at IKKε) were below 0.3 µM and 0.3 to 3 µM, respectively.

On to `O=C(NCCCNc1nc(Nc2cccc(NC(=O)N3CCCC3)c2)ncc1I)c1cccs1` [BX-795, reference compound], for which the IC50 in the assay with TBK1 + IKKε was 0.2 to 0.8 µM.
